Experimental findings from patent publication US12310963B2, “Pyrazole derivatives and use thereof” (Tarapeutics Science Inc., priority 2019, dated 2025) are described below.

Assay [1] concerns BaF3-tel-PDGFRα (stably expressing PDGFRα kinase). The assay is described as follows: Growth of BaF3-tel-PDGFRα cells, Cell Titer-Glo, 72 h. It is filed as cell-based, mouse. The source says: (§1) In this example, mouse primary B cell BaF3 (purchased from ATCC, U.S.A.) was used. In addition, in this example, mouse BaF3-tel-PDGFRα (stably expressing PDGFRα kinase), mouse BaF3-tel-PDGFRβ (stably expressing PDGFRβ kinase), BaF3-P210 (stably expressing ABL kinase), BaF3-P210-T315I (stably expressing ABL-T315I kinase), BaF3-FL-BRAF-V600E (stably expressing BRAF-V600E kinase), BaF3-TEL-cKIT (stably expressing cKIT kinase), BaF3-TEL-VEGFR2 (stably expressing VEGFR2 kinase), BaF3-TEL-FGFR2 (stably expressing FGFR2 kinase) were also used. The above-mentioned cell trains were all constructed in our laboratory by the method as follows. The sequences of human BCR-ABL (P210 or P210/T315I mutated), full-length BRAF-V600E, cKIT, VEGFR2, FGFR2, PDGFRα, PDGFRβ kinase region were amplified respectively via PCR, and inserted respectively into a MSCV-Puro vector (purchased from Clontech) having a N-terminal TEL fragment and/or NPM fragment and/or TPR fragment, and stably transferred into mouse BaF3 cells by the retroviral method, and the growth factor IL-3 was removed. Eventually, cell lines which are transferred into proteins depending on PDGFRα, PDGFRβ were obtained.
(§2) In this example, solutions of the test compound at different concentrations (0.000508 μM, 0.00152 μM, 0.00457 μM, 0.0137 μM, 0.0411 μM, 0.123 μM, 0.370 μM, 1.11 μM, 3.33 μM, 10 μM) were added to the above cells. The cells were incubated for 72 hours.

The next assay concerns BaF3. The assay is described as follows: Growth of parental BaF3 cells, Cell Titer-Glo, 72 h. It is filed as cell-based. The note with it: Mus musculus.
Source text: as §1, §2

The test system of assay [2] is BaF3-tel-PDGFRβ (stably expressing PDGFRβ kinase). The experiment in a line: Growth of BaF3-tel-PDGFRβ cells, Cell Titer-Glo, 72 h. The format is cell-based, mouse.
Source text: as §1, §2

In assay [3] the test system is pulmonary arterial hypertension (PAH). The experiment in a line: Rat model of pulmonary arterial hypertension (PAH), monocrotaline-induced. The format is in vivo. The note with it: 50 mg/kg by gavage, 28 days. On the procedure: SCXK (SU) 2017-0001. These rats were fed with conventional pellet feeds (Jiangsu Xietong Bio. Co., Ltd.), and were raised in a clean animal room with 12h/12h light/dark cycle. The rats were fed with foods and drinking water on an ad libitum basis. The temperature was maintained at 20-26° C., and the relative humidity was 40-70%. 120 SD rats were divided into 24 cages with 5 rats per group. […] The animals were treated in strict accordance with animal ethics regulations throughout the experiment. According to the method described in “Pharmaceutical experimental animal models: Fabrication and application” and the Standard Operating Procedure for PAH Model Construction of Model Animal Center, rats were intraperitoneally injected with a solution of 1% monocrotaline (MCT, purchased from Sigma, U.S.A.) once at a dose of 35 mg/kg. On Day 7 after the first injection of MCT, MCT was injected again at a dose of 20 mg/kg. The rats in the normal control group were intraperitoneally injected with an equivalent amount of water as a blank solvent. The specific steps were as follows: After the rats in each of the cages were fasted for 8 hours, each of the rats was weighed and recorded for the basic body weight after fasting; based on the measured basic body weight for each of the rats, the amount of MCT required to be injected for each of the rats was calculated according to the modeling dose of 35 mg/kg; based on the amount of MCT required to be injected for each of the rats, the dose for injection of a 1% MCT solution was calculated; the rats were fixed in a holder and intraperitoneally injected with the 1% MCT solution at the calculated dose; the rats were returned to the cages for routine feeding after the injection. […] The blood gas analyzer was operated following the standard operation procedure. […] Each of the rats was administered by gavage once a day starting from the day of regrouping at Week 4. The rats in the negative control group were daily administered by gavage with an equal volume of methylcellulose as vehicle. The rats in each of the groups were administered by gavage for consecutive 4 weeks (i.e., 28 days). […] The rats were weighed after fasting overnight twice a week. The administration dosage was calculated based on the weighing results. […] After the rats were under anesthesia, the pulmonary arterial pressure and the right ventricular systolic pressure of rats were measured. […] The steps were as follows. A No. 3.5 umbilical vein catheter was connected to a system pressure transducer. A formulated solution of […] sodium (purchased from Sangon) was filled into the transducer and the catheter, and bubbles were discharged. The anesthetized rat was placed on a surgical anatomical plate that is adjustable in its temperature. The temperature of the plate was adjusted to be maintained at about 37° C. The rat was fixed in supine position. The neck skin was cut with scissors to the edge of the clavicle, followed by blunt dissection of subcutaneous tissues and muscles, exposing the right external jugular vein. The adipose tissue on the surface was removed with ophthalmic surgical scissors. The external jugular vein was ligated at the […] surgical thread, and a loose knot was made at the proximal end for reserve. The external jugular vein was gently lifted with ophthalmic tweezers and cut with ophthalmic scissors to make a “V” opening. The catheter was quickly inserted, and the loose knot at the proximal end was tightened slightly to prevent bleeding. […] The catheter was further inserted slowly forward, and entered into the pulmonary artery at about 5 cm. […] The blood was transferred into an anticoagulation tube, and loaded in a blood gas analyzer to determine the indexes of partial pressure of oxygen (pO2), partial pressure of carbon dioxide (pCO2) and blood oxygen saturation (SaO2) in the blood.

Where only a bound is given, the exact number is not on record here.

Turning to `CN1CCN(c2cncc(-c3cn(-c4cc(NC(=O)c5cncc(C(F)(F)F)c5)ccc4F)nn3)c2)CC1` [Compound 26, N-(4-fluoro-3-(4-(5-(4-methylpiperazin-1-yl)pyridin-3-yl)-1H-1,2,3-triazol-1-yl)phenyl)-5-(trifluoromethyl)nicotinamide], the results for the GI50 (in assay [1]; with BaF3; in assay [2]) were less than 10 nM, 4.74 µM and less than 10 nM, respectively.
On to `CN1CCN(c2cncc(-c3cn(-c4cc(NC(=O)c5cc(C(F)(F)F)ccn5)ccc4F)nn3)c2)CC1` [Compound 27, N-(4-fluoro-3-(4-(5-(4-methylpiperazin-1-yl)pyridin-3-yl)-1H-1,2,3-triazol-1-yl)phenyl)-4-(trifluoromethyl)picolinamide], for which the GI50 is less than 10 nM in assay [1], 4.73 µM with BaF3 and less than 10 nM in assay [2].
`CN1CCN(c2cncc(-c3cn(-c4cc(NC(=O)c5cccc(Cl)n5)ccc4F)nn3)c2)CC1` [Compound 28, 6-chloro-N-(4-fluoro-3-(4-(5-(4-methylpiperazin-1-yl)pyridin-3-yl)-1H-1,2,3-triazol-1-yl)phenyl)picolinamide]: the results for the GI50 (in assay [1]; in the assay with BaF3; in assay [2]) were less than 10 nM, 3.9 µM and less than 10 nM, respectively.
For the compound `CN1CCN(c2cncc(-c3cn(-c4cc(NC(=O)c5cccc(F)n5)ccc4F)nn3)c2)CC1` [Compound 29, 6-fluoro-N-(4-fluoro-3-(4-(5-(4-methylpiperazin-1-yl)pyridin-3-yl)-1H-1,2,3-triazol-1-yl)phenyl)picolinamide], the GI50 in assay [1] is less than 10 nM; in the assay with BaF3 it was 2.84 µM; in assay [2], less than 10 nM.
`Cc1ccc(NC(=O)c2cccc(C(F)(F)F)n2)cc1-n1cc(-c2cncc(N3CC4(COC4)C3)c2)cn1` [Compound 32, N-(3-(4-(5-(2-oxa-6-aza-spiro[3.3]hept-6-yl]pyridin-3-yl)-1H-pyrazol-1-yl)-4-methylphenyl)-6-(trifluoromethyl)picolinamide]: the GI50 in assay [1] was less than 10 nM; in the assay with BaF3, 9.2 µM; in assay [2], less than 10 nM.
As for `Cc1ccc(NC(=O)c2ccnc(C(F)(F)F)c2)cc1-n1cc(-c2cncc(N3CC4(COC4)C3)c2)cn1` [Compound 33, N-(3-(4-(5-(2-oxa-6-aza-spiro[3.3]hept-6-yl]pyridin-3-yl)-1H-pyrazol-1-yl)-4-methylphenyl)-2-(trifluoromethyl)isonicotinamide], the GI50 in assay [1] is less than 10 nM; in the assay on BaF3, 6.49 µM; in assay [2], less than 10 nM.
Consider `Cc1ccc(NC(=O)c2cncc(C(F)(F)F)c2)cc1-n1cc(-c2cncc(N3CC4(COC4)C3)c2)cn1` [Compound 34, N-(3-(4-(5-(2-oxa-6-aza-spiro[3.3]hept-6-yl]pyridin-3-yl)-1H-pyrazol-1-yl)-4-methylphenyl)-5-(trifluoromethyl)nicotinamide], for which the GI50 in assay [1] is less than 10 nM; in the assay on BaF3 it was greater than 10 µM; in assay [2] it was less than 10 nM.
As for `Cc1ccc(NC(=O)c2cc(C(F)(F)F)ccn2)cc1-n1cc(-c2cncc(N3CC4(COC4)C3)c2)cn1` [Compound 35, N-(3-(4-(5-(2-oxa-6-aza-spiro[3.3]hept-6-yl]pyridin-3-yl)-1H-pyrazol-1-yl)-4-methylphenyl)-4-(trifluoromethyl)picolinamide], the 50% growth inhibitory concentration (GI50) in assay [1] is less than 10 nM; in the assay with BaF3, 5.84 µM; in assay [2] it was less than 10 nM.
For `Cc1ccc(NC(=O)c2cccc(Cl)n2)cc1-n1cc(-c2cncc(N3CC4(COC4)C3)c2)cn1` [Compound 36, N-(3-(4-(5-(2-oxa-6-aza-spiro[3.3]hept-6-yl]pyridin-3-yl)-1H-pyrazol-1-yl)-4-methylphenyl)-6-chloropicolinamide], the GI50 in assay [1] was less than 10 nM; in the assay on BaF3 it was 9.76 µM; in assay [2], less than 10 nM.
For the compound `Cc1ccc(NC(=O)c2cccc(F)n2)cc1-n1cc(-c2cncc(N3CC4(COC4)C3)c2)cn1` [Compound 37, N-(3-(4-(5-(2-oxa-6-aza-spiro[3.3]hept-6-yl]pyridin-3-yl)-1H-pyrazol-1-yl)-4-methylphenyl)-6-fluoropicolinamide], the GI50 in assay [1] is less than 10 nM; in the assay with BaF3, 9.85 µM; in assay [2] it was less than 10 nM.
As for `Cc1ccc(NC(=O)c2cccc(C(F)(F)F)n2)cc1-n1cc(-c2cncc(N3CC4(COC4)C3)c2)nn1` [Compound 38, N-(3-(4-(5-(2-oxa-6-aza-spiro[3.3]hept-6-yl]pyridin-3-yl)-1H-1,2,3-triazol-1-yl)-4-methylphenyl)-6-(trifluoromethyl)picolinamide], the GI50 is less than 10 nM in assay [1], greater than 10 µM in the assay with BaF3 and less than 10 nM in assay [2].
In the case of `Cc1ccc(NC(=O)c2ccnc(C(F)(F)F)c2)cc1-n1cc(-c2cncc(N3CC4(COC4)C3)c2)nn1` [Compound 39, N-(3-(4-(5-(2-oxa-6-aza-spiro[3.3]hept-6-yl]pyridin-3-yl)-1H-1,2,3-triazol-1-yl)-4-methylphenyl)-2-(trifluoromethyl)isonicotinamide], the GI50 in assay [1] was less than 10 nM; in the assay with BaF3 it was greater than 10 µM; in assay [2] it was less than 10 nM.
Turning to `Cc1ccc(NC(=O)c2cncc(C(F)(F)F)c2)cc1-n1cc(-c2cncc(N3CC4(COC4)C3)c2)nn1` [Compound 40, N-(3-(4-(5-(2-oxa-6-aza-spiro[3.3]hept-6-yl]pyridin-3-yl)-1H-1,2,3-triazol-1-yl)-4-methylphenyl)-5-(trifluoromethyl)nicotinamide], the GI50 in assay [1] was less than 10 nM; in the assay with BaF3 it was 9.99 µM; in assay [2] it was less than 10 nM.
For `Cc1ccc(NC(=O)c2cc(C(F)(F)F)ccn2)cc1-n1cc(-c2cncc(N3CC4(COC4)C3)c2)nn1` [Compound 41, N-(3-(4-(5-(2-oxa-6-aza-spiro[3.3]hept-6-yl]pyridin-3-yl)-1H-1,2,3-triazol-1-yl)-4-methylphenyl)-4-(trifluoromethyl)picolinamide], the results for the GI50 (in assay [1]; with BaF3; in assay [2]) were less than 10 nM, 3.66 µM and less than 10 nM, respectively.
As for `COc1ccccc1Oc1c(NS(=O)(=O)c2ccc(C(C)(C)C)cc2)nc(-c2ncccn2)nc1OCCO` [bosentan, reference compound], the “RVI (right ventricular hypertrophy index) decrease as compared with the negative control group” value in assay [3] was found to be 15.7%.
